Results: patent publication US20220315895A1, “METHODS OF MAKING OLIGOPOTENT AND UNIPOTENT PRECURSORS” (Transfusion Health, LLC, priority 2019, published 2022)

Test system: CD34+ cells from cord blood
Assay: Expansion of cord blood CD34+ cells, seven-day culture (Example 35)
Type: cell-based, human
Details: normalized fold change days 1 to 7
Description: CD34+ cells from cord blood were purchased from STEMCELL Technologies. Primary human CD34+ cells were isolated from cord blood samples using positive immunomagnetic separation techniques. Cells were thawed and gradually brought to room temperature. Samples were washed, then placed in overnight culture in StemSpan with 100 ng/ml each of FLT3L, TPO, SCF, and TL-6. Eighteen to twenty-four hours later (day 1), cells were counted and immunophenotyped (flow cytometry on an Invitrogen Attune N×T cytometer).
Approximately 1000 live cells were plated into each well of 96-well plates; exact cell numbers dispensed per well were quantified with flow cytometry for later calculations.
Media for testing compounds of Formula I was prepared using Alpha MEM without phenol red, 10% (v/v) heat inactivated fetal bovine serum. Culture conditions also included an antibiotic solution that includes penicillin, streptomycin, and amphotericin B to avoid contamination. Additional media components and concentrations used for the compounds tested are described in Table 5.
All incubations for this experiment took place at 3% oxygen (controlled by nitrogen) and 5% CO2. Following seven days of culture, cells from wells were collected and phenotypes were analyzed (flow cytometry on an Invitrogen Attune N×T cytometer).
Table 6 below, summarizes the relative expansive effect of the screened compounds at the indicated concentration. The data in Table 6 is reported as the relative expansive effect. The relative expansive effect is a normalized value of the fold changes shown in each of the figures. It is calculated as shown below: […]

In the case of CN(C)C(=O)Nc1ccc2c(c1)C(O)c1ccccc1-2 (stereo not shown) [Compound 1.033, 3-(9-hydroxy-9H-fluoren-2-yl)-1,1-dimethylurea], the “CD90 effect (relative expansive effect on CD34+/CD133+/CD90+ cells)” value (sample compound 10 μM) is reported as “++ (1.44 ≤ x < 1.8)” and the “CD133 effect (relative expansive effect on CD34+/CD133+ cells)” value (sample compound 10 μM) is reported as “+++ (1.8 ≤ x < 2.16)”.
For O=C(Nc1ccc2c(c1)C(O)c1ccccc1-2)c1ccc(O)cc1 (stereo not shown) [Compound 1.032, 4-hydroxy-N-(9-hydroxy-9H-fluoren-2-yl)benzamide], the “CD90 effect (relative expansive effect on CD34+/CD133+/CD90+ cells)” value (sample compound 10 μM) was “++ (1.44 ≤ x < 1.8)” and the “CD133 effect (relative expansive effect on CD34+/CD133+ cells)” value (sample compound 10 μM) was “++ (1.44 ≤ x < 1.8)”.
In the case of CC(=O)Nc1ccc2c(c1)C(O)c1ccccc1-2 (stereo not shown) [Compound 1.029, N-(9-hydroxy-9H-fluoren-2-yl)acetamide], the “CD90 effect (relative expansive effect on CD34+/CD133+/CD90+ cells)” value (sample compound 8 μM) is reported as “++++ (2.16 ≤ x < 2.52)” and the “CD133 effect (relative expansive effect on CD34+/CD133+ cells)” value (sample compound 8 μM) is reported as “++++ (2.16 ≤ x < 2.52)”.
COC1c2ccccc2-c2ccc(NC(=O)C(C)(C)C)cc21 (stereo not shown) [Compound 1.025, N-(9-methoxy-9H-fluoren-2-yl)pivalamide] was tested, and the “CD90 effect (relative expansive effect on CD34+/CD133+/CD90+ cells)” value (sample compound 8 μM) was “++++ (2.16 ≤ x < 2.52)” and the “CD133 effect (relative expansive effect on CD34+/CD133+ cells)” value (sample compound 8 μM) was “+++ (1.8 ≤ x < 2.16)”.
In the case of O=C1c2ccccc2-c2ccccc21 [Compound 1.037], the “CD90 effect (relative expansive effect on CD34+/CD133+/CD90+ cells)” value (sample compound 10 μM) is reported as “++ (1.44 ≤ x < 1.8)” and the “CD133 effect (relative expansive effect on CD34+/CD133+ cells)” value (sample compound 10 μM) is reported as “+ (x < 1.44)”.
CC(=O)OC1c2ccccc2-c2ccc(NC(=O)C(C)(C)C)cc21 (stereo not shown) [Compound 1.024, 2-pivalamide-9H-fluoren-9-yl acetate] was tested, and the “CD90 effect (relative expansive effect on CD34+/CD133+/CD90+ cells)” value (sample compound 8 μM) was “++++ (2.16 ≤ x < 2.52)” and the “CD133 effect (relative expansive effect on CD34+/CD133+ cells)” value (sample compound 8 μM) was “+++ (1.8 ≤ x < 2.16)”.
For O=C1c2ccccc2-c2ccc([N+](=O)[O-])cc21 [Compound 1.036], the “CD90 effect (relative expansive effect on CD34+/CD133+/CD90+ cells)” value (sample compound 10 μM) was “+++ (1.8 ≤ x < 2.16)” and the “CD133 effect (relative expansive effect on CD34+/CD133+ cells)” value (sample compound 10 μM) was “++ (1.44 ≤ x < 1.8)”.
For O=C(Nc1ccc2c(c1)C(O)c1ccccc1-2)C(Cl)(Cl)Cl (stereo not shown) [Compound 1.034, 2,2,2-trichloro-N-(9-hydroxy-9H-fluoren-2-yl)acetamide], the “CD90 effect (relative expansive effect on CD34+/CD133+/CD90+ cells)” value (sample compound 10 μM) was “+++++ (2.52 ≤ x)” and the “CD133 effect (relative expansive effect on CD34+/CD133+ cells)” value (sample compound 10 μM) was “+++++ (2.52 ≤ x)”.
For CC(C)(C)C(=O)Nc1ccc2c(c1)/C(=N\O)c1ccccc1-2 [Compound 1.028, N-(9-(hydroxyimino)-9H-fluoren-2-yl)pivalamide], the “CD90 effect (relative expansive effect on CD34+/CD133+/CD90+ cells)” value (sample compound 2 μM) was “+++ (1.8 ≤ x < 2.16)” and the “CD133 effect (relative expansive effect on CD34+/CD133+ cells)” value (sample compound 2 μM) was “+++ (1.8 ≤ x < 2.16)”.
In the case of Nc1ccc2c(c1)C(=O)c1ccccc1-2 [Compound 1.035], the “CD90 effect (relative expansive effect on CD34+/CD133+/CD90+ cells)” value (sample compound 10 μM) is reported as “+++ (1.8 ≤ x < 2.16)” and the “CD133 effect (relative expansive effect on CD34+/CD133+ cells)” value (sample compound 10 μM) is reported as “+++ (1.8 ≤ x < 2.16)”.
With CC(=O)Oc1ccc2c(c1)C(=O)c1cc(OC(C)=O)ccc1-2 [Compound 1.027, 9-oxo-9H-fluorene-2,7-diyl diacetate] the “CD90 effect (relative expansive effect on CD34+/CD133+/CD90+ cells)” value (sample compound 2 μM) was “++ (1.44 ≤ x < 1.8)” and the “CD133 effect (relative expansive effect on CD34+/CD133+ cells)” value (sample compound 2 μM) was “++ (1.44 ≤ x < 1.8)”.
For O=C(Nc1ccc2c(c1)C(O)c1ccccc1-2)C1CCCCO1 (stereo not shown) [Compound 1.031, N-(9-hydroxy-9H-fluoren-2-yl)tetrahydro-2H-pyran-2-carboxamide], the “CD90 effect (relative expansive effect on CD34+/CD133+/CD90+ cells)” value (sample compound 10 μM) was “++ (1.44 ≤ x < 1.8)” and the “CD133 effect (relative expansive effect on CD34+/CD133+ cells)” value (sample compound 10 μM) was “+++ (1.8 ≤ x < 2.16)”.
In the case of CC(C)(C)C(=O)Oc1ccc2c(c1)C(O)c1ccccc1-2 (stereo not shown) [Compound 1.030, 9-hydroxy-9H-fluoren-2-yl pivalate], the “CD90 effect (relative expansive effect on CD34+/CD133+/CD90+ cells)” value (sample compound 10 μM) is reported as “+++ (1.8 ≤ x < 2.16)” and the “CD133 effect (relative expansive effect on CD34+/CD133+ cells)” value (sample compound 10 μM) is reported as “+++ (1.8 ≤ x < 2.16)”.
For CC(C)(C)C(=O)Nc1ccc2c(c1)C(C#N)c1ccccc1-2 (stereo not shown) [Compound 1.026, N-(9-cyano-9H-fluoren-2-yl)pivalamide], the “CD90 effect (relative expansive effect on CD34+/CD133+/CD90+ cells)” value (sample compound 2 μM) was “++ (1.44 ≤ x < 1.8)” and the “CD133 effect (relative expansive effect on CD34+/CD133+ cells)” value (sample compound 2 μM) was “++ (1.44 ≤ x < 1.8)”.
